According to patent US20260306491A1, “EGFR INHIBITOR FOR TREATING CANCERS COMPRISING ATYPICAL EGFR MUTATIONS” (ORIC Pharmaceuticals, Inc., priority 2023, published 2026):

Key:
[1] = system: HER2 exon 20 mutated NSCLC; test: Clinical evaluation in one subject (Example 12); type: in vivo, human; details: hemifumarate, 30 mg BID
Protocol: A subject having HER2 exon 20 mutated NSCLC was enrolled in a clinical study relating to Compound I. The cancer in the subject had been previously treated with pemetrexed/cisplatin, ipilimumab/nivolumab/carboplatin, and pemetrexed/carboplatin/pembrolizumab. The subject was enrolled in a dosing cohort that received 30 mg BID of Compound I in the form of a hemifumarate salt.

[2] = Clinical study in NSCLC subjects: treatment-related adverse events (Example 10); type: in vivo, human; details: oral hemifumarate
Protocol: A clinical study was conducted using Compound I in human subjects having non-small cell lung cancer (NSCLC) comprising EGFR exon 20 insertion mutations, HER2 exon 20 insertion mutations, or HER2 amplification or overexpression. A total of 50 human subjects having non-small cell lung cancer comprising one or more EGFR exon 20 insertion mutations, HER2 exon 20 insertion mutations, or HER2 amplification or overexpression were enrolled in the study as of Jul. 31, 2023 with data collected as of Sep. 26, 2023. The subjects were enrolled into one of ten dosing cohorts that were each orally administered Compound I in the form of a hemifumarate salt as shown in Table 13 (QD=once per day; BID=twice per day).
The TRAEs that occurred in equal to or greater than 10% of subjects in the study are set forth in Tables 15 to 18 (TDD=total daily dose; n=number; N/A=not applicable; the term rash includes the following terms: acne, dermatitis, dermatitis acneiform, eczema, hand dermatitis, and rash).

## C=CC(=O)Nc1cc(Nc2cc(N3OCC[C@@H]3c3cc(F)cc(F)c3)ncn2)c(OC)cc1N1CCC(N2CCN(C3CC3)CC2)CC1 [Compound I, N-[2-[4-(4-cyclopropyl-1-piperazinyl)-1-piperidinyl]-5-[[6-[(3R)-3-(3,5-difluorophenyl)-2-isoxazolidinyl]-4-pyrimidinyl]amino]-4-methoxyphenyl]-2-propenamide]
[1]; after cycle 1
  Non-target lesions response: non-CR/non-PD
[1]; after cycle 1 (28 days)
  Reduction of all target lesions: 100%
[1]; after cycle 1, confirmed end of cycle 2
  Tumor response: partial response
[1]; continuing
  Duration of dosing at data cutoff: on dosing cycle 3
[1]; data cutoff Sep. 26, 2023
  EGFR-related adverse events: Grade 2 rash and Grade 2 nausea
[1]; end of cycle 2
  Reduction of all target lesions: 100%
[2]
  Dose reductions and discontinuations: infrequent dose reductions and discontinuations
[2]; 45 mg-60 mg TDD (n = 23)
  Decreased appetite, Grade 1: (22) %
  Decreased appetite, Grade 1, number of subjects: 5 n
  Decreased appetite, Grade 2: (4) %
  Decreased appetite, Grade 2, number of subjects: 1 n
  Diarrhea, Grade 1: (30) %
  Diarrhea, Grade 1, number of subjects: 7 n
  Diarrhea, Grade 2: (9) %
  Diarrhea, Grade 2, number of subjects: 2 n
  Diarrhea, Grade 3: 9%
  Diarrhea, Grade 3, number of subjects: 2 n
  Dose discontinuations: 4%
  Dose discontinuations, number: 1 n
  Dose reductions: 13%
  Dose reductions, number: 3 n
  Nausea, Grade 1: (9) %
  Nausea, Grade 1, number of subjects: 2 n
  Nausea, Grade 2: (9) %
  Nausea, Grade 2, number of subjects: 2 n
  Paronychia, Grade 1: (17) %
  Paronychia, Grade 1, number of subjects: 4 n
  Paronychia, Grade 2: (17) %
  Paronychia, Grade 2, number of subjects: 4 n
  Pruritis, Grade 1: (17) %
  Pruritis, Grade 1, number of subjects: 4 n
  Pruritis, Grade 2: (9) %
  Pruritis, Grade 2, number of subjects: 2 n
  Pruritis, Grade 3: 4%
  Pruritis, Grade 3, number of subjects: 1 n
  Rash, Grade 1: (26) %
  Rash, Grade 1, number of subjects: 6 n
  Rash, Grade 2: (26) %
  Rash, Grade 2, number of subjects: 6 n
  Stomatitis, Grade 1: (9) %
  Stomatitis, Grade 1, number of subjects: 2 n
  Stomatitis, Grade 2: (9) %
  Stomatitis, Grade 2, number of subjects: 2 n
  Stomatitis, Grade 3: 4%
  Stomatitis, Grade 3, number of subjects: 1 n
  Vomiting, Grade 1: (9) %
  Vomiting, Grade 1, number of subjects: 2 n
[2]; <45 mg TDD (n = 18)
  Decreased appetite, Grade 2: (6) %
  Decreased appetite, Grade 2, number of subjects: 1 n
  Diarrhea, Grade 1: (11) %
  Diarrhea, Grade 1, number of subjects: 2 n
  Diarrhea, Grade 2: (11) %
  Diarrhea, Grade 2, number of subjects: 2 n
  Dose discontinuations: 9%
  Dose discontinuations, number: 1 n
  Dose reductions: 18%
  Dose reductions, number: 2 n
  Nausea, Grade 1: (6) %
  Nausea, Grade 1, number of subjects: 1 n
  Paronychia, Grade 1: (6) %
  Paronychia, Grade 1, number of subjects: 1 n
  Paronychia, Grade 2: (11) %
  Paronychia, Grade 2, number of subjects: 2 n
  Pruritis, Grade 1: (11) %
  Pruritis, Grade 1, number of subjects: 2 n
  Rash, Grade 1: (33) %
